What all share (assay type): cell-based, HBV genotype A
The test system of assay [1] is A194T (AT) mutant HBV-DNA construct transfected into HepG2 cells. The assay is described as follows: transient transfection cell culture assay, extracellular HBV-DNA by real-time PCR, rtA194T (AT) construct. The text has this: (§1) An extended (1.28×) HBV genome was cloned (HBV genotype A, subtype adw2) into a pBluescript KS (+) plasmid (Stratagene, La Jolla, Calif., USA), as described by Tacke et al, J Virol 78:8524-8535, 2004.
(§2) Three mutated HBV plasmids were constructed using a Quikchange (Registered) II site-directed mutagenesis kit (Stratagene, La Jolla, Calif., USA). Plasmids contained either mutations rtL180M and rtM204V (LM), rtL180M, rtM204V and rtA194T (LMAT), or rtA194T (AT). […]
(§3) HBV viral particles from the cell culture supernatant were precipitated using 26% polyethylene glycol (PEG 8000, Sigma, St. Louis, Mo., USA), followed by DNase 1 digestion (Takara, Shiga, Japan). […] A quantitative real-time PCR was used to quantify HBV-DNA. Briefly, a 189-bp fragment of the X region was amplified in a LightCycler system (Roche), using the QuantiTect Probe PCR kit (Qiagen) and the following probes and primers: 3FL-XHybprobe (5′-ACGGGGCGCACCTCTCTTTACGCGG fluorescein-3′ (SEQ ID NO:23)), 5LC-Xhybprobe (5′LCRed 640 nm-CTCCCCGTCTGTGCCTTCTCATCTGC PH-3′ (SEQ ID NO:24)), X sense (5′-GAC GTC CTT TGT YTA CGT CCC GTC-3′ (SEQ ID NO:25)), and X antisense (5′-TGCAGAGGTGAAGCGAAGTGCACA-3′ (SEQ ID NO:26)). […]
(§4) After adjusting for transfection efficiency, IC50 values were calculated from the HBV viral load using the following formula (Vandamme et al, Antiviral methods and protocols: 231, 2000): log IC50=log conc. […]
(Real-time PCR tracks product formation cycle by cycle.)

The test system of assay [2] is L180M + M204V (LM) mutant HBV-DNA construct transfected into HepG2 cells. Description: transient transfection cell culture assay, extracellular HBV-DNA by real-time PCR, rtL180M+rtM204V (LM) construct.
Description: as §1, §2, §3, §4

Assay [3] relates to WT HBV-DNA construct transfected into HepG2 cells. The assay is described as follows: transient transfection cell culture assay, extracellular HBV-DNA by real-time PCR, WT construct. The procedure:
as §1
HepG2 cells were grown in Eagles minimum essential medium (LGC Promochem, Middlesex, UK), supplemented with 10% v/v fetal bovine serum at 37° C. and 5% v/v CO2. For cDNA transfections, 3×10^5 cells were seeded to semi-confluence onto each well of a 6-well plate and allowed to adhere overnight. […]
as §3
Extracellular HBV-DNA was examined by real-time PCR, 5 days post-transfection and IC50 values were calculated.

Assay [4] has as its system L180M, A194T, M204V (LMAT) mutant HBV-DNA construct transfected into HepG2 cells. The assay is described as follows: transient transfection cell culture assay, extracellular HBV-DNA by real-time PCR, rtL180M+rtA194T+rtM204V (LMAT) construct.
Description: as §1, §2, §3, §4

Marks after values point to notes of the source that are not given here.

In the case of `CC(C)OC(=O)OCOP(=O)(CO[C@H](C)Cn1cnc2c(N)ncnc21)OCOC(=O)OC(C)C.O=C(O)/C=C/C(=O)O` [tenofovir, Tenofovir disoproxil fumarate], the IC50 (commonly the concentration that gives 50% inhibition) in assay [1] (A194T (AT) construct, HepG2 cells, 5 days post-transfection) is 95 µM; in assay [2] (L180M + M204V (LM) construct, HepG2 cells, 5 days post-transfection), 71 µM; in assay [3] (WT HBV construct, 5 days post-transfection), 12.4 µM; in assay [4] (M204V (LMAT) construct, HepG2 cells, value above the cell toxic level of tenofovir) it was more than 120 µM. Moreover, the “Fold IC50, extracellular DNA” value in assay [1] (A194T (AT) versus WT, 5-10 fold = partial resistance) is recorded as 7.6^a; in assay [2] (L180M + M204V (LM) versus WT, 5-10 fold = partial resistance) it was 5.7^a; in assay [3] (WT HBV construct (reference)) it was 1^; in assay [4] (M204V (LMAT) versus WT, >10-fold = resistance), >10*^b.

Source of the values: patent US7927601B2, “Variants of hepatitis B virus with resistance to anti-viral nucleoside agents and applications thereof” (Melbourne Health, priority 2004, dated 2011).
